Measurements: ChEMBL document CHEMBL5042526, “Design, Synthesis, and Biological Evaluation of Triazolone Derivatives as Potent PPARα/δ Dual Agonists for the Treatment of Nonalcoholic Steatohepatitis” (J Med Chem, 2022)

What was measured:
[1] = Microsomal stability in human liver microsomes assessed as terminal elimination half life at 1 uM measured upto 60 mins by LC-MS/MS-11 analysis; format: ADME, Microsome
[2] = biological target: T1, Peroxisome proliferator-activated receptor alpha (Homo sapiens) (UniProt Q07869); assay: Agonist activity at PPARalpha (unknown origin) assessed as maximal activation at 10 nM relative to control; conditions: filed as agonist
T1 sequence (whole entry): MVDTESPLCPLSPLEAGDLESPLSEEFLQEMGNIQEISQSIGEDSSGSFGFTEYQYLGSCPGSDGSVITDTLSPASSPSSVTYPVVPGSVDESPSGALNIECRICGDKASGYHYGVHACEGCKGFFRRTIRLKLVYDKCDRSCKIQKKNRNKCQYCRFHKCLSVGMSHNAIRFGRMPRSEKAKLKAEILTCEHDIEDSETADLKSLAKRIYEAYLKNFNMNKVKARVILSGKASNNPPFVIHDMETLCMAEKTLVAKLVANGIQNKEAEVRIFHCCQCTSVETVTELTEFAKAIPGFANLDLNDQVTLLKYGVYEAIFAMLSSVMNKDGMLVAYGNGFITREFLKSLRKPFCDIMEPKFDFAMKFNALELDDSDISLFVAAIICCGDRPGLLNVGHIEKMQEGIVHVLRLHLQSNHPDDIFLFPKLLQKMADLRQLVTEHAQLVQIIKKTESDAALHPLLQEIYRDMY

[3] = Intrinsic clearance in human liver microsomes at 1 uM measured upto 60 mins by LC-MS/MS-11 analysis; format: ADME, Microsome; conditions: read-out: CLH
[4] = biological target: T2, Peroxisome proliferator-activated receptor gamma (Homo sapiens) (UniProt P37231); assay: Agonist activity at PPARgamma (unknown origin) assessed as maximal activation at 10 nM relative to control; conditions: filed as agonist
T2 sequence (whole entry): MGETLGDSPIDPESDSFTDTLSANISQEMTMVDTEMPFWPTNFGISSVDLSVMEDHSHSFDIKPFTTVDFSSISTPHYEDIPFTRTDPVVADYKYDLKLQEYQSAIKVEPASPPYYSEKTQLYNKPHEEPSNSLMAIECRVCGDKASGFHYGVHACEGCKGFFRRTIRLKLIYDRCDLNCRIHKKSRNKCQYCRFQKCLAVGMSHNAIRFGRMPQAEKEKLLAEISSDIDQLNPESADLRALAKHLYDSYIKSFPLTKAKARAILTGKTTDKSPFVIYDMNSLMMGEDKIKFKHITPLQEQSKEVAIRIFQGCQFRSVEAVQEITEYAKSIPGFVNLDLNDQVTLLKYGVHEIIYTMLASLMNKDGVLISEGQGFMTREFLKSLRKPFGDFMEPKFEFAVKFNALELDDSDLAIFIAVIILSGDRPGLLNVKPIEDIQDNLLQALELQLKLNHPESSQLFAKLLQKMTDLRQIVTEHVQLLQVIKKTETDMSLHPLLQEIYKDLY

[5] = biological target: T3, Peroxisome proliferator-activated receptor delta (Homo sapiens) (UniProt Q03181); assay: Agonist activity at PPARdelta (unknown origin) assessed as maximal activation at 10 nM relative to control; conditions: filed as agonist
T3 sequence (whole entry): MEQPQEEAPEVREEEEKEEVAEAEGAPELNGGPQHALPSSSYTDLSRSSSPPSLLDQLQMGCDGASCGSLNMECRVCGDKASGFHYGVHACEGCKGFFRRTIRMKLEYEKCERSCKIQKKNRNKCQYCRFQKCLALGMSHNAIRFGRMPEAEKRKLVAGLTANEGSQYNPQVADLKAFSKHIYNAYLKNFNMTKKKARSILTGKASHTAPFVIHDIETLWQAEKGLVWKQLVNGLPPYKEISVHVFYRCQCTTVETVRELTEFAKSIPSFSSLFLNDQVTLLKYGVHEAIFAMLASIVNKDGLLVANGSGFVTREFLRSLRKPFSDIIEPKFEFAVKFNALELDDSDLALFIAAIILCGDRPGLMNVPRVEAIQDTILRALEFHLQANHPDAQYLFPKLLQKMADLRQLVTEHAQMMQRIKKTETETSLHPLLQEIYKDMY

[6] = biological target: T4, Peroxisome proliferator-activated receptor alpha (Homo sapiens, UniProt Q07869); assay: Agonist activity at PPARalpha (unknown origin)
T4 sequence (Q07869 whole entry): T1 sequence (whole entry)

[7] = biological target: T1, Peroxisome proliferator-activated receptor alpha (Homo sapiens); conditions: filed as agonist, dose 10.0 nM
Description: Agonist activity at PPARalpha (unknown origin) assessed as maximal activation at 10 nM relative to GW7647

[8] = biological target: T3, Peroxisome proliferator-activated receptor delta (Homo sapiens); conditions: filed as agonist, dose 10.0 nM
[9] = biological target: T5, Peroxisome proliferator-activated receptor delta (Homo sapiens, UniProt Q03181); assay: Agonist activity at PPARdelta (unknown origin)
T5 sequence (Q03181 whole entry): T3 sequence (whole entry)

[10] = biological target: T2, Peroxisome proliferator-activated receptor gamma (Homo sapiens); conditions: filed as agonist, dose 10.0 nM
[11] = biological target: T6, Peroxisome proliferator-activated receptor gamma (Homo sapiens, UniProt P37231); assay: Agonist activity at PPARgamma (unknown origin)
T6 sequence (P37231 whole entry): T2 sequence (whole entry)

EC50 [6] [nM]	Emax [7] [%]	Emax [8] [%]	EC50 [9] [nM]	Emax [10] [%]	EC50 [11] [µM]	SMILES	also measured
8.6	162	81	14.7	76	–	Cc1cc(Cn2ncn(-c3ccc(C(F)(F)F)cc3)c2=O)cc(Cl)c1OC(C)(C)C(=O)O	half-life at 1 µM [1]: > 120 min; CLint scaled at 1 µM [3]: 3.96 mL/min/kg
–	126	114	–	180	–	Cc1cc(Cn2ncn(-c3ccc(Cl)cc3)c2=O)cc(C)c1OC(C)(C)C(=O)O	–
> 5000	–	–	> 5000	–	> 5	Cc1cc(Cn2ncn(-c3ccc(C#N)cc3)c2=O)cc(C)c1OC(C)(C)C(=O)O	–
–	–	–	21.6	–	–	Cc1cc(Cn2ncn(-c3ccc(Br)cc3)c2=O)cc(C)c1OC(C)(C)C(=O)O	half-life at 1 µM [1]: > 120 min; CLint scaled at 1 µM [3]: 1.45 mL/min/kg
–	69	72	–	–	> 5	Cc1cc(OCn2ncn(-c3ccc(C(F)(F)F)cc3)c2=O)cc(C)c1OC(C)(C)C(=O)O	–
–	120	107	–	114	–	COc1ccc(-n2cnn(Cc3cc(C)c(OC(C)(C)C(=O)O)c(C)c3)c2=O)cc1	–
> 5000	–	–	> 5000	84	3.79	Cc1cc(Cn2ncn(-c3ccccc3C(F)(F)F)c2=O)cc(C)c1OC(C)(C)C(=O)O	–
–	114	87	–	87	–	Cc1ccc(-n2cnn(Cc3cc(C)c(OC(C)(C)C(=O)O)c(C)c3)c2=O)cc1	–
> 5000	–	–	> 5000	–	> 5	Cc1cc(-n2ncn(-c3ccc(C(F)(F)F)cc3)c2=O)cc(C)c1OC(C)(C)C(=O)O	–
14.2	98	99	–	149	–	CCc1ccc(-n2cnn(Cc3cc(C)c(OC(C)(C)C(=O)O)c(C)c3)c2=O)cc1	half-life at 1 µM [1]: > 120 min; CLint scaled at 1 µM [3]: 4.68 mL/min/kg
–	–	–	1.7	–	–	Cc1cc(Cn2ncn(-c3ccc(C(F)(F)F)cc3)c2=O)cc(C)c1OC(C)(C)C(=O)O	half-life at 1 µM [1]: > 120 min; CLint scaled at 1 µM [3]: 3.6 mL/min/kg
59.1	–	–	–	–	–	CCc1cc(Cn2ncn(-c3ccc(C(F)(F)F)cc3)c2=O)cc(CC)c1OC(C)(C)C(=O)O	–
–	–	–	–	–	> 5	CC(C)(Oc1c(F)cc(Cn2ncn(-c3ccc(C(F)(F)F)cc3)c2=O)cc1F)C(=O)O	–
7.6	110	129	28.5	–	> 5	Cc1cc(Cn2ncn(-c3ccc(OC(F)(F)F)cc3)c2=O)cc(Cl)c1OC(C)(C)C(=O)O	–
–	78	72	–	–	> 5	Cc1cc(CCCn2ncn(-c3ccc(C(F)(F)F)cc3)c2=O)cc(C)c1OC(C)(C)C(=O)O	–
–	–	–	1.4	–	–	Cc1cc(Cn2ncn(-c3ccc(C(F)(F)F)cc3)c2=O)cc(C(F)(F)F)c1OC(C)(C)C(=O)O	half-life at 1 µM [1]: > 120 min; CLint scaled at 1 µM [3]: 2.7 mL/min/kg

Second part, the compound before the results:

SMILES	EC50 [6] [nM]	Emax [7] [%]	Emax [8] [%]	EC50 [9] [nM]	Emax [10] [%]	EC50 [11] [µM]	also measured
CSc1ccc(C(=O)/C=C/c2cc(C)c(OC(C)(C)C(=O)O)c(C)c2)cc1 [ELAFIBRANOR]	–	–	–	–	–	–	half-life at 1 µM [1]: > 120 min; Emax [2]: 82%; CLint scaled at 1 µM [3]: 116 mL/min/kg; Emax [4]: 115%; Emax [5]: 52%
CC(C)(Oc1ccc(Cn2ncn(-c3ccc(OC(F)(F)F)cc3)c2=O)cc1F)C(=O)O	–	102	105	–	–	> 5	–
Cc1cc(Cn2ncn(-c3ccc(S(C)(=O)=O)cc3)c2=O)cc(C)c1OC(C)(C)C(=O)O	–	–	–	> 5000	–	> 5	–
Cc1cc(Cc2cc(-c3ccc(Br)cc3)on2)cc(C)c1OC(C)(C)C(=O)O	65.1	–	–	24.2	–	2.75	Emax [2]: 135%; Emax [4]: 118%; Emax [5]: 75%
Cc1cc(Cn2ncn(-c3ccc(OC(F)(F)F)cc3)c2=O)cc(C(F)(F)F)c1OC(C)(C)C(=O)O	–	–	–	5.6	–	–	half-life at 1 µM [1]: > 120 min; CLint scaled at 1 µM [3]: 0.09 mL/min/kg
CC(C)(Oc1ccc(Cn2ncn(-c3ccc(C(F)(F)F)cc3)c2=O)cc1F)C(=O)O	–	136	118	–	–	> 5	–
CC(C)(Oc1c(F)cc(Cn2ncn(-c3ccc(OC(F)(F)F)cc3)c2=O)cc1F)C(=O)O	–	99	113	–	–	> 5	–
CC(C)(Oc1c(Cl)cc(Cn2ncn(-c3ccc(OC(F)(F)F)cc3)c2=O)cc1Cl)C(=O)O	6.8	153	118	–	–	> 5	–
Cc1cc(Cn2ncn(-c3ccc(OC(F)(F)F)cc3)c2=O)ccc1OC(C)(C)C(=O)O	–	141	97	–	110	–	–
CC(C)(Oc1c(Cl)cc(Cn2ncn(-c3ccc(C(F)(F)F)cc3)c2=O)cc1Cl)C(=O)O	–	–	–	–	–	–	half-life at 1 µM [1]: > 120 min; CLint scaled at 1 µM [3]: 10.3 mL/min/kg
CC(C)(Oc1ccc(Cn2ncn(-c3ccc(C(F)(F)F)cc3)c2=O)cc1Cl)C(=O)O	–	150	97	–	99	–	–
CCOc1ccc(-n2cnn(Cc3cc(C)c(OC(C)(C)C(=O)O)c(C)c3)c2=O)cc1	32.6	79	81	–	–	> 5	–
CC(C)(Oc1ccc(Cn2ncn(-c3ccc(OC(F)(F)F)cc3)c2=O)cc1Cl)C(=O)O	–	111	95	–	67	–	–
CC(C)(Oc1ccc(Cn2ncn(-c3ccc(OC(F)(F)F)cc3)c2=O)cc1)C(=O)O	–	109	71	–	–	> 5	–
Cc1cc(Cn2ncn(-c3ccccc3)c2=O)cc(C)c1OC(C)(C)C(=O)O	–	–	–	–	–	0.865	–
CC(C)(Oc1ccc(Cn2ncn(-c3ccc(C(F)(F)F)cc3)c2=O)cc1)C(=O)O	–	–	–	–	–	> 5	–
CCc1cc(Cn2ncn(-c3ccc(OC(F)(F)F)cc3)c2=O)cc(CC)c1OC(C)(C)C(=O)O	44.4	129	74	–	125	3.09	–
CC(C)(Oc1ccc(Cn2ncn(-c3ccc(OC(F)(F)F)cc3)c2=O)cc1OC(F)(F)F)C(=O)O	–	130	160	–	70	–	–
Cc1cc(Cn2ncn(-c3ccc(C(C)C)cc3)c2=O)cc(C)c1OC(C)(C)C(=O)O	7.5	–	–	–	–	–	–
O=C(O)CCCc1cc2cc(Cl)ccc2n1S(=O)(=O)c1ccc2ncsc2c1 [LANIFIBRANOR]	3060	–	–	2960	–	0.559	Emax [2]: 65%; Emax [4]: 119%; Emax [5]: 89%
